pIC50: −log10 of the molar value.
The compounds below were run against PRMT5/MEP50 protein complex (Homo sapiens (Human), UniProt O14744) (assay: PRMT5 biochemical assay (3H-SAM methylation of H4(1-21) peptide, filter plate scintillation)). Conditions: 10 nM PRMT5/MEP50 complex, 200 nM H4(1-21) peptide, 1 uM SAM, 25 minute incubation at room temperature.
Procedure: Biochemical Assay Methods
Compounds were solubilized in DMSO and serially diluted, using 3-fold dilutions, into 100% DMSO at a concentration 50-fold greater than the desired assay concentration. Following dilution, 1 ul was added to an empty 96-well microtiter plate. PRMT5/MEP50 protein complex was combined with H4(1-21) peptide ([…]) in PRMT5 assay buffer (50 mM Tris pH 8.5, 50 mM NaCl, 5 mM MgCl2, 1 mM EDTA, 1 mM TCEP) and 44 ul was added to the microtiter plate containing compound. S-Adenosyl-L-methionine (SAM) was prepared by combining ^3H labelled SAM with unlabelled SAM in PRMT5 assay buffer such that the final SAM concentration was 10 uM and the specific activity was 0.2 uCi/ul. The reaction was initiated by adding 5 ul of SAM stock to the microtiter plate. The final reaction conditions were 10 nM PRMT5/MEP50 complex, 200 nM peptide and 1 uM SAM. Following a 25 minute incubation at room temperature, the reaction was stopped with the addition of 100 uL of 20% TCA. The 3H-peptide product was captured using a 96-well filter plate (MSIPN4B, Millipore) and washed 5 times with PBS buffer. Scintillation fluid (100 ul) was added to the dried filter plate and counted in a liquid scintillation counter. IC50 values were determined by fitting the data to the standard 4-parameter dose response equation using Pfizer proprietary software.
Results for the biochemical assay of examples are summarized in Table 1, shown as IC50 values in μM.

Sequence of PRMT5/MEP50 protein complex (O14744 other isoform, or with tags, fused parts or gaps): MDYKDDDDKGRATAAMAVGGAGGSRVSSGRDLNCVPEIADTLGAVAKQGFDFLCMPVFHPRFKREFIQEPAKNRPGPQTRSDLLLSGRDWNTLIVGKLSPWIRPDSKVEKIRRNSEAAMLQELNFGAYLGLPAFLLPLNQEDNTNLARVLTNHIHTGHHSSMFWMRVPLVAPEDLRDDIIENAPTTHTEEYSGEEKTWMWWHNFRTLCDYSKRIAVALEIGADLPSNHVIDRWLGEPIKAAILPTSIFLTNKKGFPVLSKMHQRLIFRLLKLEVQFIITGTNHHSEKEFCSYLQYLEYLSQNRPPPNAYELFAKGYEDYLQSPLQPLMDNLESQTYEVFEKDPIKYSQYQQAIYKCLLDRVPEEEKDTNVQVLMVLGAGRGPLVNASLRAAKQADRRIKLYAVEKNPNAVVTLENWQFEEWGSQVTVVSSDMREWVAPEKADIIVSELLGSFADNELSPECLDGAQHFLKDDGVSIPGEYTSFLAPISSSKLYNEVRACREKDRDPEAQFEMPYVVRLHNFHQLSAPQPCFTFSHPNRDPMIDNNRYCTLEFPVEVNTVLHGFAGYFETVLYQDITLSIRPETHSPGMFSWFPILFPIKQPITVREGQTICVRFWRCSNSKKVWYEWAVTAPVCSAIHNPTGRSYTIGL
Sequence of PRMT5/MEP50 protein complex (Q9BQA1 whole entry partner): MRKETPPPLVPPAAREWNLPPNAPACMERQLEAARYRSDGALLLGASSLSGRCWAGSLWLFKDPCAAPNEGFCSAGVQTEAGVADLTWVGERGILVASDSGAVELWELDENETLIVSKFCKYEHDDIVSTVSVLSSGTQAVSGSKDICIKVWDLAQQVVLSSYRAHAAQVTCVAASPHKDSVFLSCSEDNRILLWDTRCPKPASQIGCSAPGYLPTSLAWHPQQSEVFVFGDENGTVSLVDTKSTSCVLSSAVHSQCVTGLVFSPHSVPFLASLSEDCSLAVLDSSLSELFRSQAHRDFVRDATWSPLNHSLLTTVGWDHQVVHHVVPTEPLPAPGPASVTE

| Compound | pIC50 |
| --- | --- |
| Cc1ncnc2c1ccn2[C@@H]1C[C@H]([C@@H](O)c2ccc(Cl)c(F)c2)[C@@H](O)[C@H]1O [Example 161, (1S,2R,3R,5R)-3-((R)-(4-chloro-3-fluorophenyl)(hydroxy)methyl)-5-(4-methyl-7H-pyrrolo[2,3-d]pyrimidin-7-yl)cyclopentane-1,2-diol] | 6.70 |
| Cc1ncnc2c1ccn2[C@@H]1C[C@H](Oc2ccc(Cl)c(Cl)c2CN)[C@@H](O)[C@H]1O [Example 150, (1S,2S,3S,5R)-3-(2-(aminomethyl)-3,4-dichlorophenoxy)-5-(4-methyl-7H-pyrrolo[2,3-d]pyrimidin-7-yl)cyclopentane-1,2-diol] | 7.15 |
| Cc1nccc(O[C@@H]2C[C@H](Oc3cccc4c3CNCC4)[C@@H](O)[C@H]2O)n1 [Example 158, (1S,2R,3R,5S)-3-((2-methylpyrimidin-4-yl)oxy)-5-((1,2,3,4-tetrahydroisoquinolin-8-yl)oxy)cyclopentane-1,2-diol] | < 3.70 |
| Cc1ncnc2c1ccn2[C@@H]1C[C@H](Oc2ccc(F)cc2C(N)=O)[C@@H](O)[C@H]1O [Example 70, 2-(((1S,2S,3S,4R)-2,3-dihydroxy-4-(4-methyl-7H-pyrrolo[2,3-d]pyrimidin-7-yl)cyclopentyl)oxy)-5-fluorobenzamide] | 4.87 |
| Cc1ncnc2c1ccn2[C@@H]1C[C@H]([C@@H](C)O)[C@@H](O)[C@H]1O [Example 1, (1S,2R,3R,5R)-3-((R)-1-hydroxyethyl)-5-(4-methyl-7H-pyrrolo[2,3-d]pyrimidin-7-yl)cyclopentane-1,2-diol] | 6.29 |
| Cc1ncnc2c1ccn2[C@@H]1C[C@H](Oc2cccc(C(F)(F)F)c2CN)[C@@H](O)[C@H]1O [Example 144, (1S,2S,3S,5R)-3-(2-(aminomethyl)-3-(trifluoromethyl)phenoxy)-5-(4-methyl-7H-pyrrolo[2,3-d]pyrimidin-7-yl)cyclopentane-1,2-diol] | 7.11 |
| Cc1ncnc2c1ccn2[C@@H]1C[C@H](Oc2ccccc2C#N)[C@@H](O)[C@H]1O [Example 64, 2-(((1S,2S,3S,4R)-2,3-dihydroxy-4-(4-methyl-7H-pyrrolo[2,3-d]pyrimidin-7-yl)cyclopentyl)oxy)benzonitrile] | < 3.70 |
| Cc1ncnc2c1ccn2[C@@H]1C[C@H]([C@H](O)c2cccc(Cl)c2)[C@@H](O)[C@H]1O [Example 7] | 6.92 |
| Cc1ncnc2c1ccn2[C@@H]1C[C@H](Cc2ccc(F)cc2)[C@@H](O)[C@H]1O [Example 58, (1S,2R,3S,5R)-3-(4-fluorobenzyl)-5-(4-methyl-7H-pyrrolo[2,3-d]pyrimidin-7-yl)cyclopentane-1,2-diol] | 6.54 |
| Cc1ncnc2c1ccn2[C@@H]1C[C@H](Oc2cc(C(F)F)c(F)c3c2CNCC3)[C@@H](O)[C@H]1O [Example 190, (1S,2S,3S,5R)-3-((6-(difluoromethyl)-5-fluoro-1,2,3,4-tetrahydroisoquinolin-8-yl)oxy)-5-(4-methyl-7H-pyrrolo[2,3-d]pyrimidin-7-yl)cyclopentane-1,2-diol] | 9.00 |
| Cc1ncnc2c1ccn2[C@@H]1C[C@H](Oc2cccc3c2C(N)CCC3)[C@@H](O)[C@H]1O (single isomer, unassigned) [Example 187] | 6.01 |
| Cc1ncnc2c1ccn2[C@@H]1C[C@H](Oc2ccc(F)cc2CN(C)C)[C@@H](O)[C@H]1O [Example 71, (1S,2S,3S,5R)-3-(2-((dimethylamino)methyl)-4-fluorophenoxy)-5-(4-methyl-7H-pyrrolo[2,3-d]pyrimidin-7-yl)cyclopentane-1,2-diol] | 7.16 |
| Cc1cc(N(C)[C@@H]2C[C@H]([C@@H](O)c3ccc(F)c(F)c3)[C@@H](O)[C@H]2O)ncn1 [Example 34, (1S,2R,3R,5R)-3-[(R)-(3,4-difluorophenyl)(hydroxy)methyl]-5-[methyl(6-methylpyrimidin-4-yl)amino] cyclopentane-1,2-diol] | 4.23 |
| Cc1cn([C@@H]2C[C@H](Oc3cc(F)c(F)c4c3CNCC4)[C@@H](O)[C@H]2O)c2ncnc(N)c12 [Example 179, (1S,2S,3R,5S)-3-(4-amino-5-methyl-7H-pyrrolo[2,3-d]pyrimidin-7-yl)-5-((5,6-difluoro-1,2,3,4-tetrahydroisoquinolin-8-yl)oxy)cyclopentane-1,2-diol] | 9.00 |
| Cc1ncnc2c1ccn2[C@@H]1C[C@H]([C@@H](O)c2ccc(F)c(Cl)c2)[C@@H](O)[C@H]1O [Example 6, (1S,2R,3R,5R)-3-[(R)-(3-chloro-4-fluorophenyl) (hydroxy)methyl]-5-(4-methyl-7H-pyrrolo[2,3-d]pyrimidin-7-yl)cyclopentane-1,2-diol] | 6.37 |
| Cc1ncnc(N(C)[C@@H]2C[C@H]([C@@H](O)c3ccc(F)c(F)c3)[C@@H](O)[C@H]2O)n1 [Example 47, (1S,2R,3R,5R)-3-[(R)-(3,4-difluorophenyl)(hydroxy)methyl]-5-[methyl(4-methyl-1,3,5-triazin-2-yl)amino]cyclopentane-1,2-diol] | 4.53 |
| Cc1ncnc2c1ccn2[C@@H]1C[C@H](Oc2ccc(F)cc2[C@@H](C)N)[C@@H](O)[C@H]1O [Example 137, (1S,2S,3S,5R)-3-(2-((R)-1-aminoethyl)-4-fluorophenoxy)-5-(4-methyl-7H-pyrrolo[2,3-d]pyrimidin-7-yl)cyclopentane-1,2-diol] | 6.91 |
| Cc1nccc(N(C)[C@@H]2C[C@H]([C@@H](O)c3ccc(F)c(F)c3)[C@@H](O)[C@H]2O)n1 [Example 36, (1S,2R,3R,5R)-3-[(R)-(3,4-difluorophenyl)(hydroxy)methyl]-5-[methyl(2-methylpyrimidin-4-yl)amino] cyclopentane-1,2-diol] | 5.57 |
| Cc1ncnc2c1ccn2[C@@H]1C[C@H](Oc2ccc(F)cc2CO)[C@@H](O)[C@H]1O [Example 135, (1S,2S,3S,5R)-3-(4-fluoro-2-(hydroxymethyl)phenoxy)-5-(4-methyl-7H-pyrrolo[2,3-d]pyrimidin-7-yl)cyclopentane-1,2-diol] | 4.99 |
| Cc1ncnc2c1ccn2[C@@H]1C[C@H]([C@H](CN)c2ccc(F)cc2)[C@@H](O)[C@H]1O [Example 51, (1S,2R,3R,5R)-3-[(1S)-2-amino-1-(4-fluorophenyl)ethyl]-5-(4-methyl-7H-pyrrolo[2,3-d]pyrimidin-7-yl)cyclopentane-1,2-diol] | 6.17 |
| Cc1nccc(N(C)[C@@H]2C[C@H]([C@H](O)c3ccc(F)c(F)c3)[C@@H](O)[C@H]2O)n1 [Example 35, (1S,2R,3R,5R)-3-[(S)-(3,4-difluorophenyl)(hydroxy)methyl]-5-[methyl(2-methylpyrimidin-4-yl)amino] cyclopentane-1,2-diol] | 6.82 |
| Cc1ncnc2c1ccn2[C@@H]1C[C@H](C(C)(C)O)[C@@H](O)[C@H]1O [Example 18, (1S,2R,3S,5R)-3-(2-hydroxypropan-2-yl)-5-(4-methyl-7H-pyrrolo[2,3-d]pyrimidin-7-yl)cyclopentane-1,2-diol] | 5.43 |
| Cc1ncnc2c1ccn2[C@H]1C[C@@H](Oc2ccc(F)cc2CN)[C@H](O)[C@@H]1O [Example 67, (1R,2R,3R,5S)-3-(2-(aminomethyl)-4-fluorophenoxy)-5-(4-methyl-7H-pyrrolo[2,3-d]pyrimidin-7-yl)cyclopentane-1,2-diol] | < 3.70 |
| CN(c1ncnc(N)n1)[C@@H]1C[C@H]([C@H](O)c2ccc(F)c(F)c2)[C@@H](O)[C@H]1O [Example 37, (1R,2S,3R,5R)-3-[(4-amino-1,3,5-triazin-2-yl)(methyl)amino]-5-[(S)-(3,4-difluorophenyl) (hydroxy)methyl]cyclopentane-1,2-diol] | 6.58 |
| CN(c1cc(N)ncn1)[C@@H]1C[C@H]([C@@H](O)c2ccc(F)c(F)c2)[C@@H](O)[C@H]1O [Example 44, (1R,2S,3R,5R)-3-[(6-aminopyrimidin-4-yl)(methyl)amino]-5-[(R)-(3,4-difluorophenyl)(hydroxy)methyl]cyclopentane-1,2-diol] | 4.77 |
| Cc1ncnc2c1ccn2[C@@H]1C[C@H]([C@@H](O)c2cccc(Cl)c2)[C@@H](O)[C@H]1O [Example 8, (1S,2R,3R,5R)-3-[(R)-(3-chlorophenyl) (hydroxy)methyl]-5-(4-methyl-7H-pyrrolo[2,3-d]pyrimidin-7-yl)cyclopentane-1,2-diol] | 5.47 |
| Nc1ncnc2c1ccn2[C@@H]1C[C@H]([C@@H](O)c2ccc(Cl)c(F)c2)[C@@H](O)[C@H]1O [Example 24, (1R,2S,3R,5R)-3-(4-amino-7H-pyrrolo[2,3-d]pyrimidin-7-yl)-5-((R)-(4-chloro-3-fluorophenyl)(hydroxy)methyl)cyclopentane-1,2-diol] | 7.15 |
| Cc1nc(N)nc2c1ccn2[C@@H]1C[C@H]([C@@H](O)c2ccc(F)c(F)c2)[C@@H](O)[C@H]1O [Example 49, (1R,2S,3R,5R)-3-(2-amino-4-methyl-7H-pyrrolo[2,3-d]pyrimidin-7-yl)-5-[(R)-(3,4-difluorophenyl)(hydroxy)methyl]cyclopentane-1,2-diol] | 6.98 |
| N#Cc1cccc2c(N[C@@H]3C[C@H](C(O)c4ccc(F)c(F)c4)[C@@H](O)[C@H]3O)ncnc12 (single isomer, unassigned) [Example 30, 4-({(1R;2S;3R;4R)-4-[(3;4-difluorophenyl)(hydroxy)methyl]-2;3-dihydroxycyclopentyl}amino)quinazoline-8-carbonitrile] | < 3.70 |
